{"source": "patent US8163702B2", "about": "“Treatment of melanoma” (SciClone Pharmaceuticals, Inc., priority 2006, dated 2012)", "key": {"[1]": {"test_system": "B16 cell line", "test": "Apoptosis by DNA flow cytometric analysis (propidium iodide)", "format": "cell-based, murine", "settings": "propidium iodide flow cytometry", "method": "Apoptosis was assessed by DNA flow cytometric analysis. At each concentration of SCV-07, adherent cells were detached from the plates by trypsinization, pooled with the floating cells and fixed with 50% acetone:methanol 1:4 in PBS. The cells were suspended (1×10^6/ml) in PBS containing 50 μg/ml of propidium iodide (PI) and 100 KU/ml of RNase and incubated in the dark at room temperature for 30 min. The DNA content per cell was evaluated by PI fluorescence measured on a linear scale using a FACScan flow cytometer (Becton & Dickinson, San Jose, Calif.). Apoptotic cells show a diminished staining, in the red fluorescence channel, below the G0/G1 population of normal diploid cells, and are represented by a broad hypodiploid peak due to DNA fragmentation following apoptotic events. This is easily distinguishable from the narrow peak of cells with diploid DNA content. The fraction of apoptotic cells was therefore calculated by integrating the pre-G1 peak."}, "[2]": {"test_system": "spleen lymphocytes", "settings": "cited from earlier work"}, "[3]": {"test_system": "bone marrow cells", "settings": "cited from earlier work"}, "[4]": {"settings": "5-FU-immune-suppressed animals; immunization with sheep red blood cells; cited from earlier work"}}}
{"smiles": "N[C@H](CCC(=O)N[C@@H](Cc1c[nH]c2ccccc12)C(=O)O)C(=O)O", "note": "[SCV-07, γ-D-glutamyl-L-tryptophan]", "values": [{"measurement": "percentage of apoptotic cell death", "setting": "[1]", "value": "could not evidence any significant effect"}, {"measurement": "Con-A-induced interleukin-2 (IL-2) production and IL-2 receptor expression", "setting": "[2]", "value": "increases"}, {"measurement": "expression of Thy-1.2", "setting": "[3]", "value": "stimulates"}, {"measurement": "immunostimulatory effect", "setting": "[4]", "value": "strong immunostimulatory effect"}]}
